Results published in ChEMBL document CHEMBL1201862, “PubChem BioAssay data set” (2004).
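Growth conditions: 96-well plates. Treatment: test compound, 48 hours, 5 concentrations. Analysis: linear interpolation between bracketing concentrations; unreached endpoints set to highest concentration. Abbreviation: GI50, concentration required for 50% inhibition of growth.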 Calls of active or inactive are those of the source. No stated cut-off is given here; in the data, active = GI50 up to about 1.1 µM and inactive = higher.

What was measured:
Experiment in all cases: inhibition of tumour cell growth, NCI panel, 48 h
RPMI-8226 = system: RPMI-8226
HCT-15 = system: HCT-15
ACHN = system: ACHN
HT-29 = system: HT-29
HCC 2998 = system: HCC 2998
SF-268 = system: SF-268
SK-MEL-5 = system: SK-MEL-5
HOP-92 = system: HOP-92
MOLT-4 = system: MOLT-4
OVCAR-4 = system: OVCAR-4
OVCAR-8 = system: OVCAR-8
M14 = system: M14
SR = system: SR
786-0 = system: 786-0
SK-OV-3 = system: SK-OV-3
CCRF-CEM = system: CCRF-CEM
UO-31 = system: UO-31
SW-620 = system: SW-620
HCT-116 = system: HCT-116
EKVX = system: EKVX

Compound	GI50 (RPMI-8226)	GI50 (HCT-15) [nM]	GI50 (ACHN)	GI50 (HT-29)	GI50 (HCC 2998)	GI50 (SF-268)	GI50 (SK-MEL-5)	GI50 (HOP-92)	GI50 (MOLT-4)	GI50 (OVCAR-4)	GI50 (OVCAR-8)	GI50 (M14)	GI50 (SR)	GI50 (786-0)	GI50 (SK-OV-3)	GI50 (CCRF-CEM)	GI50 (UO-31)	GI50 (SW-620)	GI50 (HCT-116)	GI50 (EKVX)
O=C1Nc2ccccc2C1Cc1ccccc1 (stereo not given)	> 100 µM (inactive)	> 100000	> 100 µM (inactive)	> 100 µM (inactive)	> 100 µM (inactive)	> 100 µM (inactive)	43.6 µM (inactive)	> 100 µM (inactive)	> 100 µM (inactive)	> 100 µM (inactive)	> 100 µM (inactive)	> 100 µM (inactive)	> 100 µM (inactive)	> 100 µM (inactive)	> 100 µM (inactive)	> 100 µM (inactive)	78.5 µM (inactive)	> 100 µM (inactive)	> 100 µM (inactive)	56.1 µM (inactive)
CC(C)(C)c1ccc2c(c1)CNCCNCc1cc(C(C)(C)C)ccc1OCC1(CO2)COc2ccc(C(C)(C)C)cc2CNCCNCc2cc(C(C)(C)C)ccc2OC1	0.372 µM (active)	931	1.6 µM (inactive)	0.665 µM (active)	0.335 µM (active)	1.78 µM (inactive)	1.23 µM (inactive)	1.26 µM (inactive)	0.225 µM (active)	1.53 µM (inactive)	0.935 µM (active)	0.467 µM (active)	0.129 µM (active)	0.25 µM (active)	1.84 µM (inactive)	0.2 µM (active)	1.8 µM (inactive)	0.501 µM (active)	0.288 µM (active)	1.27 µM (inactive)
C/C(=N\NC(=S)N1CCN(c2ccccn2)CC1)c1ncccn1	0.0131 µM (active)	20	0.0693 µM (active)	0.0161 µM (active)	0.361 µM (active)	0.0323 µM (active)	0.109 µM (active)	1.63 µM (inactive)	0.0116 µM (active)	0.205 µM (active)	0.0289 µM (active)	0.0515 µM (active)	0.0863 µM (active)	0.0601 µM (active)	0.284 µM (active)	0.00615 µM (active)	0.993 µM (active)	0.196 µM (active)	0.00395 µM (active)	0.291 µM (active)
O=C1C=C(OCCCCl)C(=O)c2c(O)ccc(O)c21	2.06 µM (inactive)	422	1.59 µM (inactive)	0.581 µM (active)	1.91 µM (inactive)	1.73 µM (inactive)	0.163 µM (active)	1.42 µM (inactive)	2.11 µM (inactive)	1.25 µM (inactive)	2.07 µM (inactive)	0.188 µM (active)	0.871 µM (active)	1.56 µM (inactive)	2.24 µM (inactive)	0.661 µM (active)	1.18 µM (inactive)	0.277 µM (active)	0.459 µM (active)	1.79 µM (inactive)
CC(=O)CC(=O)Nc1ccccc1[N+](=O)[O-]	> 100 µM (inactive)	> 100000	> 100 µM (inactive)	> 100 µM (inactive)	> 100 µM (inactive)	> 100 µM (inactive)	> 100 µM (inactive)	> 100 µM (inactive)	> 100 µM (inactive)	> 100 µM (inactive)	> 100 µM (inactive)	> 100 µM (inactive)	> 100 µM (inactive)	> 100 µM (inactive)	> 100 µM (inactive)	> 100 µM (inactive)	> 100 µM (inactive)	> 100 µM (inactive)	> 100 µM (inactive)	> 100 µM (inactive)
CCCCCCCCCCCCCCCCOP(=O)(O)Oc1ccc(/C=C\c2ccc(OP(=O)(O)OCCCCCCCCCCCCCCCC)cc2)cc1	19.3 µM (inactive)	> 100000	40.6 µM (inactive)	62.7 µM (inactive)	> 100 µM (inactive)	34.9 µM (inactive)	> 100 µM (inactive)	5.02 µM (inactive)	59 µM (inactive)	62.5 µM (inactive)	12.2 µM (inactive)	45.6 µM (inactive)	30 µM (inactive)	26.2 µM (inactive)	> 100 µM (inactive)	29 µM (inactive)	> 100 µM (inactive)	> 100 µM (inactive)	54 µM (inactive)	> 100 µM (inactive)
